Measurements published in patent publication US20200199190A1, “Calcitonin Mimetics for Treating Diseases and Disorders” (KeyBioscience AG, priority 2017, published 2020).
“Also recorded” adds a separate entry of the source. Ends that are not written are not given here.

Tests used:
[1] = molecular target: T1, Calcitonin Receptor (CTR) (Homo sapiens, UniProt P30988); assay: Prolonged β-arrestin recruitment, calcitonin receptor activation over time (U2OS CALCR cells); type: cell-based; conditions: single dose of 100 nM at t=0, read up to 72 hours, FIGS. 3A-3B
T1 construct: host or cells: U2OS
T1 sequence (P30988 25-474): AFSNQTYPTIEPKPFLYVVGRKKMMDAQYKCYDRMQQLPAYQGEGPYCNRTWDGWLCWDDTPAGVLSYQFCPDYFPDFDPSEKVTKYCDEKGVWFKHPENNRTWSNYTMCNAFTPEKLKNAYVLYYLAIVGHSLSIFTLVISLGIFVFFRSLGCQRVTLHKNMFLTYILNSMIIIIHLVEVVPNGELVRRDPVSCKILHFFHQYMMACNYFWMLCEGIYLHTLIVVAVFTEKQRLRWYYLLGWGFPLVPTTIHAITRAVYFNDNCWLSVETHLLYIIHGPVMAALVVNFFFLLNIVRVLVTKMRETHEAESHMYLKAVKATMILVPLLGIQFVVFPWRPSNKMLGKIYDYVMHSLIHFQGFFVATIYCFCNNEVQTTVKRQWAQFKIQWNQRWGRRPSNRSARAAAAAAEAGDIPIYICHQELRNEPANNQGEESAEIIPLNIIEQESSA
Protocol: FIGS. 3A-3B: Prolonged β-arrestin recruitment by KBP-046-KBP-054 (FIG. 3A) and KBP-058-KBP-063 (FIG. 3B) and human calcitonin as a function of calcitonin receptor activation. Single dose of 100 nM at t=0 and after 3, 6, 24, and 72 hours after initial treatment, β-arrestin recruitment was assessed to investigate each ligands protracted potential. Data is shown as fold of vehicle. Screening was conducted in U2OS CALCR Pathhunter cells from DiscoveRx.
(§1) In the following examples, the following materials and methods were employed. The following cell lines expressing the calcitonin, amylin and CGRP receptors were purchased and cultured according to the manufacturer's instructions. • 1. Calcitonin Receptor (CTR): U2OS-CALCR from DiscoveRx (Cat. No.: 93-0566C3). • 2. Amylin Receptor (AMY-R): CHO-K1 CALCR+RAMP3 from DiscoveRx (Cat. No.: 93-0268C2). In independent bioassays, CTR and AMY-R cells were treated with for the indicated timepoints with increasing doses of KBPs identified in Tables 1A and 1B (1000, 250, 62.5, 15.6, 3.9, 1.0, 0.24, 0.06, 0.02 nM and vehicle).
(§2) PathHunter β-Arrestin GPCR assays are whole cell, functional assays that directly measure the ability of a ligand to activate a GPCR by detecting the interaction of β-Arrestin with the activated GPCR. Because β-arrestin recruitment is independent of G-protein signaling, these assays offer a powerful and universal screening and profiling platform that can be used for virtually any Gi-, Gs, or Gq-coupled receptor.
(§3) In this system, the GPCR is fused in frame with the small enzyme fragment ProLink™ and co-expressed in cells stably expressing a fusion protein of β-Arrestin and the larger, N-terminal deletion mutant of β-gal (called enzyme acceptor or EA). Activation of the GPCR stimulates binding of β-Arrestin to the ProLink-tagged GPCR and forces complementation of the two enzyme fragments, resulting in the formation of an active β-gal enzyme. This interaction leads to an increase in enzyme activity that can be measured using chemiluminescent PathHunter® Detection Reagents.
(§4) The assay was performed in white 384 well plates (Greiner Bio-One, 784080). Cells were seeded 2500 cells per well in 10 μL cell-type specific medium the day prior to the experiment. To quantify the GPCR-mediated β-arrestin recruitment the Pathhunter™ Detection Kit (93-0001, DiscoverX) was used and assay performed accordingly to the manufacturer's instructions. Furthermore, data from the Pathhunter™ β-arrestin recruitment assay was normalized to an internal standard to improve the distinction between top KBP performers and non-performers.
Results are seen in FIGS. 1A-1B, 2A-2B and 3A-3B. […] This was done using the calcitonin receptor (CTR): U2OS-CALCR from DiscoveRx (Cat. No.: 93-0566C3) cell line, and as opposed to the classical three hour output, β-arrestin accumulation was conducted over 24, 48 and 72 hour and then analyzed.

[2] = test system: Sprague Dawley Rats; assay: Food intake in healthy Sprague Dawley rats after single s.c. dose; type: in vivo, rat; conditions: single s.c. dose 2.5 μg/kg; for Food Intake ΔFOOD Sustained Attenuation Hours: SD rats fasted overnight, food intake monitored 0-4 h and 4-24 h; for reduction in food intake within the 4 hour interval / time to which the reduction in food intake was maintained (sustained effect) / size of reduction in food intake compared with the other tested peptides: SD rats; for reduction in food intake within the 4 hour interval: 0-4 hours; for time to which the reduction in food intake was maintained (sustained effect): intervals 0-4 and 4-24 hours; for size of reduction in food intake compared with the other tested peptides: FIG. 4A (KBP-046 to -054) and FIG. 4B (KBP-058 to -063)
Protocol: FIGS. 4A-43: Protracted attenuation of food intake in SD rats by KBP-046-KBP-054 (FIG. 4A) and KBP-058-KBP-063 (FIG. 4B). After single s.c dose of 2.5 μg/kg of KBP, food intake was monitored in intervals of 0-4 h and 4-24 h to assess the protracted action of individual KBPs. Individual rats were single caged, n=4 in each group.
Rats were single caged four days prior to individual tests. They were randomized by weight into seven groups (Vehicle (0.9% NaCl), KBPs (doses: 2.5 μg/kg). They were fasted overnight and then treated with a single dose of peptide or vehicle in the morning using subcutaneous administration. The food intake was monitored in the following intervals (0-4 hours and 4-24 hours).

[3] = molecular target: T2, Amylin Receptor (AMY-R) (Homo sapiens, UniProt P30988); assay: PathHunter β-arrestin recruitment dose response, amylin receptor activation (CHO-K1 CALCR RAMP3 cells); type: cell-based; conditions: FIGS. 2A-2B
T2 construct: host or cells: CHO-K1
T2 sequence (P30988 25-474): T1 sequence (P30988 25-474)
T2 sequence (O60896 24-148 partner): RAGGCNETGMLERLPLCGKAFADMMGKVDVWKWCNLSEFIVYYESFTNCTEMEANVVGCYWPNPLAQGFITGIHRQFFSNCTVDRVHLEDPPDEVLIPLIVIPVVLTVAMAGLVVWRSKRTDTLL
Protocol: FIGS. 2A-2B: β-arrestin recruitment dose response by KBP-046-KBP-054 (FIG. 2A) and KBP-058-KBP-063 (FIG. 2B) as a function of amylin receptor activation. Dose range is 1 μM to 15 μM and data is shown as fold of vehicle. Screening was conducted in CHO-K1 CALCR RAMP3 Pathhunter cells from DiscoveRx.
as §1, §2, §3, §4

| Substance | protracted calcitonin receptor activation (prolonged β-arrestin recruitment, fold of vehicle) [1] | Food Intake ΔFOOD Sustained Attenuation Hours [2] [h] | reduction in food intake within the 4 hour interval [2] | time to which the reduction in food intake was maintained (sustained effect) [2] [h] | size of reduction in food intake compared with the other tested peptides [2] | amylin receptor activation (β-arrestin recruitment, fold of vehicle) [3] |
| --- | --- | --- | --- | --- | --- | --- |
| CGNLSTCMLGRLSQDLNKFHTFPKTDVGANAP (not fully specified; ends and bridges not checked) [KBP-047, Calcitonin mimetic peptide] | superior | 24 | reduction in food intake | 24 | largest reduction; also recorded: far greater reduction in food intake | potent amylin agonists |
| CGNLSTCMLGRLSQDLNKFHTFPQTDVGANAP (not fully specified; ends and bridges not checked) [KBP-063, Calcitonin mimetic peptide] | superior | 24 | reduction in food intake | 24 | far greater reduction in food intake | potent amylin agonists |
| CGNLSTCMLGRLTQDFHKLHTFPKTDVGANAP (not fully specified; ends and bridges not checked) [KBP-058, Calcitonin mimetic peptide] | superior | 24 | reduction in food intake | 24 | far greater reduction in food intake | potent amylin agonists |
| CGNLSTCMLGRLTQDLHKLQTFPKTDVGANAP (not fully specified; ends and bridges not checked) [KBP-053, Calcitonin mimetic peptide] | superior | 24 | reduction in food intake | 24 | far greater reduction in food intake | potent amylin agonists |
| CGNLSTCMLGRLTQDLNKFHTFPKTDVGANAP (not fully specified; ends and bridges not checked) [KBP-062, Calcitonin mimetic peptide] | superior | 24 | reduction in food intake | 24 | largest reduction; also recorded: top performance in the screening; also recorded: far greater reduction in food intake | potent amylin agonists |
| KBP-046: Calcitonin mimetic peptide, Table 1 residues CGNLSTCMLGTYTQDFHRLQTYPKTDVGANAP (not fully specified; ends and bridges not checked) | – | 4 | – | – | – | – |
| KBP-048: Calcitonin mimetic peptide, Table 1 residues CGNLSTCMLGTYTQDFNKFNTFPKTDVGANAP | – | 4 | – | – | – | – |
| KBP-050: Calcitonin mimetic peptide, Table 1 residues CGNLSTCMLGRLSQDLHRLQTYPKTAIGVGAP (not fully specified; ends and bridges not checked) | – | 4 | – | – | – | – |
| KBP-051: Calcitonin mimetic peptide, Table 1 residues CSNLSTCMLGRLSQDLHRLQTYPKTAIGVGAP (not fully specified; ends and bridges not checked) | – | 4 | – | – | – | – |
| KBP-052: Calcitonin mimetic peptide, Table 1 residues CSNLSTCMLGTYTQDFHRLQTYPKTAIGVGAP (not fully specified; ends and bridges not checked) | – | 4 | – | – | – | – |
| KBP-054: Calcitonin mimetic peptide, Table 1 residues CGNLST, positions 7-8 blank, LGRYTQDFHKPQTFPKTDVGANAP | – | 4 | – | – | – | – |
| KBP-059: Calcitonin mimetic peptide, Table 1 residues CGNLSTCMLGTYTQDLHKLHTFPKTDVGANAP (not fully specified; ends and bridges not checked) | – | 4 | – | – | – | – |
| KBP-060: Calcitonin mimetic peptide, Table 1 residues CGNLSTCMLGTYTQDFHRLQTFPQTDVGANAP | – | 4 | – | – | – | – |
| KBP-061: Calcitonin mimetic peptide, Table 1 residues CGNLSTCMLGTYTQDFHRLQTFPQTDVGANAP (printed identical to KBP-060) (not fully specified; ends and bridges not checked) | – | 4 | – | – | – | – |
